16 compounds from patent publication US12195482B1 (Arcus Biosciences, Inc., priority 2022, dated 2025) can be followed below.

Structures are written as SMILES. Bounds are passed on as bounds.

Assay [1] deals with T1, p-AXL (Homo sapiens, UniProt P30530).
T1 construct: expressed in transfected cells; host or cells: HEK293T
T1 sequence (P30530 26-894): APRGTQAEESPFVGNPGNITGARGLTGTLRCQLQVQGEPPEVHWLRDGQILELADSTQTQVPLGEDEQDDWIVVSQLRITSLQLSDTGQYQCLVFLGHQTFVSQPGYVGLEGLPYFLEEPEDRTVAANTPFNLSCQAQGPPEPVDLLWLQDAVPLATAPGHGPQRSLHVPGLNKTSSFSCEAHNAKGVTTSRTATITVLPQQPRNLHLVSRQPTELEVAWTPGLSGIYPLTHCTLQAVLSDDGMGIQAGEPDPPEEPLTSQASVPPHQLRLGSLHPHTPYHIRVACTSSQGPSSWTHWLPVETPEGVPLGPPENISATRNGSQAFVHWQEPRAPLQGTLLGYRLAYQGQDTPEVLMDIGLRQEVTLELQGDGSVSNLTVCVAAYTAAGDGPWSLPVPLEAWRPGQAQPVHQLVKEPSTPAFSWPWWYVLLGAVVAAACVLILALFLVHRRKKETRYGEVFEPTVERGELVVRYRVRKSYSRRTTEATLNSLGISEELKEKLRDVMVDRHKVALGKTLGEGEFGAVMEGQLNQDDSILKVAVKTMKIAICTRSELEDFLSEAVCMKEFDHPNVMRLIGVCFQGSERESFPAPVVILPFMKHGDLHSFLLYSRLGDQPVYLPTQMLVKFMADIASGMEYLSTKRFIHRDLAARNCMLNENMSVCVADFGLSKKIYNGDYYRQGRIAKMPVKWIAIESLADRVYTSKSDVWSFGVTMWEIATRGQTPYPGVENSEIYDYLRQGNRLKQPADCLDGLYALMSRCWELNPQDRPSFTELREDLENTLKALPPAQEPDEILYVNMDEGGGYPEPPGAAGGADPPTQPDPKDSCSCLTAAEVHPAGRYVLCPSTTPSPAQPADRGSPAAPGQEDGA
The assay can be described thus: Axl phosphorylation inhibition ELISA in HEK293T cells transfected with NanoLuc-tagged AXL. Type of assay: cell-based. To be noted: 1 h compound incubation, media (OptiMEM). An outline of the steps:
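Phospho-AXL detected by luminescence of NanoLuc tag after capture of cell lysate on biotinylated anti-phospho-tyrosine mAb plates (2 h). Lysates came from transiently transfected HEK293T cells treated 1 h at 37° C with serial 2-fold dilutions (22 points). IC50 by standard 4-parameter logistic fitting.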

In assay [2] the target is T2, Axl (Homo sapiens, UniProt P30530).
T2 sequence (P30530 26-894): T1 sequence (P30530 26-894)
Nature of the assay: Biochemical potency, HTRF KinEASE-TK kinase assay. To be noted: 5 nM AXL, 700 μM ATP. Also noted: purchased Invitrogen. An outline of the steps: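 Compounds preincubated 1 h at RT with enzyme in 50 mM HEPES pH 7.4, 10 mM MgCl2, 0.01% BSA, 1 mM DTT; reactions then ran 2 h at RT with 5 nM AXL or 1 nM TYRO3/MER, 800 nM TK substrate-biotin, 700 μM ATP, 1% DMSO. HTRF 665/620 ratio read; percent activity calculated.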

Turning to `Cc1cccnc1-c1ccc(-c2c[nH]c3ncc(-c4ccc5c(c4)CC[C@@H](N4C6COCC4C6)CC5)cc23)nc1` [Example 96, 3-Methyl-6′-{5-[(7S)-7-{3-oxa-6-azabicyclo[3.1.1]heptan-6-yl}-6,7,8,9-tetrahydro-5H-benzo[7]annulen-2-yl]-1H-pyrrolo[2,3-b]pyridin-3-yl}-2,3′-bipyridine], the IC50 in assay [1] and in assay [2] was less than 100 nM throughout.

Turning to `Cc1cncnc1-c1ccc(-c2n[nH]c3ncc(-c4ccc5c(c4)CC[C@@H](N4C6COCC4C6)CC5)cc23)cc1` [Example 174, 6-[(7S)-2-{3-[4-(5-Methylpyrimidin-4-yl)phenyl]-1H-pyrazolo[3,4-b]pyridin-5-yl}-6,7,8,9-tetrahydro-5H-benzo[7]annulen-7-yl]-3-oxa-6-azabicyclo[3.1.1]heptane], the IC50 in assay [1] and in assay [2] was less than 100 nM in each case.

With `CC(C)(O)c1cccnc1-c1ccc(-c2c[nH]c3ncc(-c4ccc5c(c4)CC[C@@H](N4C6COCC4C6)CC5)cc23)cc1` [Example 95, 2-[2-(4-{5-[(7S)-7-{3-Oxa-6-azabicyclo[3.1.1]heptan-6-yl}-6,7,8,9-tetrahydro-5H-benzo[7]annulen-2-yl]-1H-pyrrolo[2,3-b]pyridin-3-yl}phenyl)pyridin-3-yl]propan-2-ol], the IC50 in assay [1] and in assay [2] was less than 100 nM each time.

`CN(C)C(=O)c1ccccc1-c1ccc(-c2c[nH]c3ncc(-c4ccc5c(c4)CC[C@@H](N4C6COCC4C6)CC5)cc23)cn1` [Example 170, N,N-Dimethyl-2-(5-{5-[(7S)-7-{3-oxa-6-azabicyclo[3.1.1]heptan-6-yl}-6,7,8,9-tetrahydro-5H-benzo[7]annulen-2-yl]-1H-pyrrolo[2,3-b]pyridin-3-yl}pyridin-2-yl)benzamide]: the results for the IC50 in assay [1] and in assay [2] were 100 to 1000 nM and less than 100 nM, respectively.

On to `CN(C)S(=O)(=O)c1cccnc1-c1ccc(-c2c[nH]c3ncc(-c4ccc5c(c4)CC[C@@H](N4C6COCC4C6)CC5)cc23)cc1` [Example 6, N,N-Dimethyl-2-(4-{5-[(7S)-7-{3-oxa-6-azabicyclo[3.1.1]heptan-6-yl}-6,7,8,9-tetrahydro-5H-benzo[7]annulen-2-yl]-1H-pyrrolo[2,3-b]pyridin-3-yl}phenyl)pyridine-3-sulfonamide], for which the IC50 in assay [1] and in assay [2] was less than 100 nM in each case.

Turning to `Cc1nn(C)nc1-c1ccc(-c2n[nH]c3ncc(-c4ccc5c(c4)CC[C@@H](N4C6COCC4C6)CC5)cc23)cc1` [Example 14, 6-[(7S)-2-{3-[4-(2,5-Dimethyl-2H-1,2,3-triazol-4-yl)phenyl]-1H-pyrazolo[3,4-b]pyridin-5-yl}-6,7,8,9-tetrahydro-5H-benzo[7]annulen-7-yl]-3-oxa-6-azabicyclo[3.1.1]heptane], the IC50 in assay [1] and in assay [2] was less than 100 nM in each case.

As for `CN(C)C(=O)c1cccnc1-c1ccc(-c2n[nH]c3ncc(-c4ccc5c(c4)CC[C@@H](N4C6COCC4C6)CC5)cc23)cc1` [Example 167, N,N-Dimethyl-2-(4-{5-[(7S)-7-{3-oxa-6-azabicyclo[3.1.1]heptan-6-yl}-6,7,8,9-tetrahydro-5H-benzo[7]annulen-2-yl]-1H-pyrazolo[3,4-b]pyridin-3-yl}phenyl)pyridine-3-carboxamide], the IC50 in assay [1] and in assay [2] was less than 100 nM each time.

For `Cc1nccnc1-c1ccc(-c2n[nH]c3ncc(-c4ccc5c(c4)CC[C@@H](N4C6COCC4C6)CC5)cc23)cc1` [Example 175, 6-[(7S)-2-{3-[4-(3-Methylpyrazin-2-yl)phenyl]-1H-pyrazolo[3,4-b]pyridin-5-yl}-6,7,8,9-tetrahydro-5H-benzo[7]annulen-7-yl]-3-oxa-6-azabicyclo[3.1.1]heptane], the IC50 in assay [1] and in assay [2] was less than 100 nM throughout.

For the compound `FC(F)Oc1cccnc1-c1ccc(-c2n[nH]c3ncc(-c4ccc5c(c4)CC[C@@H](N4C6COCC4C6)CC5)cc23)cc1` [Example 99, 6-[(7S)-2-(3-{4-[3-(Difluoromethoxy)pyridin-2-yl]phenyl}-1H-pyrazolo[3,4-b]pyridin-5-yl)-6,7,8,9-tetrahydro-5H-benzo[7]annulen-7-yl]-3-oxa-6-azabicyclo[3.1.1]heptane], the IC50 in assay [1] and in assay [2] was less than 100 nM each time.

Regarding `c1cnc(-c2ccc(-c3c[nH]c4ncc(-c5ccc6c(c5)CC[C@@H](N5C7COCC5C7)CC6)cc34)cc2)c(N2CCOCC2)c1` [Example 5, 6-[(7S)-2-(3-{4-[3-(Morpholin-4-yl)pyridin-2-yl]phenyl}-1H-pyrrolo[2,3-b]pyridin-5-yl)-6,7,8,9-tetrahydro-5H-benzo[7]annulen-7-yl]-3-oxa-6-azabicyclo[3.1.1]heptane], the IC50 in assay [1] and in assay [2] was less than 100 nM throughout.

Take `C[C@@H]1CCCN1[C@@]1(C)CCc2ccc(-c3cnc4[nH]nc(-c5ccc(-c6ncnn6C)cc5)c4c3)cc2CC1` [Example 112, 1-Methyl-5-(4-{5-[(7S)-7-methyl-7-[(2R)-2-methylpyrrolidin-1-yl]-6,7,8,9-tetrahydro-5H-benzo[7]annulen-2-yl]-1H-pyrazolo[3,4-b]pyridin-3-yl}phenyl)-1H-1,2,4-triazole]: the IC50 in assay [1] and in assay [2] was less than 100 nM throughout.

Regarding `Cc1cccnc1-c1ccc(-c2c[nH]c3ncc(-c4ccc5c(c4)CC[C@@H](N4CCCC4)CC5)cc23)cc1` [Example 173, 3-Methyl-2-(4-{5-[(7S)-7-(pyrrolidin-1-yl)-6,7,8,9-tetrahydro-5H-benzo[7]annulen-2-yl]-1H-pyrrolo[2,3-b]pyridin-3-yl}phenyl)pyridine], the IC50 in assay [1] and in assay [2] was less than 100 nM each time.

Turning to `COC[C@H]1CCN([C@H]2CCc3ccc(-c4cnc5[nH]nc(-c6ccc(-c7ncccc7C)cc6)c5c4)cc3CC2)C1` [Example 132, 2-(4-{5-[(7S)-7-[(3S)-3-(Methoxymethyl)pyrrolidin-1-yl]-6,7,8,9-tetrahydro-5H-benzo[7]annulen-2-yl]-1H-pyrazolo[3,4-b]pyridin-3-yl}phenyl)-3-methylpyridine], the IC50 in assay [1] and in assay [2] was less than 100 nM each time.

As for `CCc1cccnc1-c1ccc(-c2c[nH]c3ncc(-c4ccc5c(c4)CC[C@@H](N4C6COCC4C6)CC5)cc23)cc1` [Example 183, 6-[(7S)-2-{3-[4-(3-Ethylpyridin-2-yl)phenyl]-1H-pyrrolo[2,3-b]pyridin-5-yl}-6,7,8,9-tetrahydro-5H-benzo[7]annulen-7-yl]-3-oxa-6-azabicyclo[3.1.1]heptane], the IC50 in assay [1] and in assay [2] was less than 100 nM throughout.

`Cc1ccnc(-c2ccc(-c3n[nH]c4ncc(-c5ccc6c(c5)CC[C@@H](N5C7COCC5C7)CC6)cc34)cc2)c1C` [Example 118, 6-[(7S)-2-{3-[4-(3,4-Dimethylpyridin-2-yl)phenyl]-1H-pyrazolo[3,4-b]pyridin-5-yl}-6,7,8,9-tetrahydro-5H-benzo[7]annulen-7-yl]-3-oxa-6-azabicyclo[3.1.1]heptane]: the IC50 in assay [1] and in assay [2] was less than 100 nM in each case.

`OC1(c2cccnc2-c2ccc(-c3c[nH]c4ncc(-c5ccc6c(c5)CC[C@@H](N5C7COCC5C7)CC6)cc34)cc2)CCC1` [Example 22, 1-[2-[4-[5-[(7S)-7-(3-Oxa-6-azabicyclo[3.1.1]heptan-6-yl)-6,7,8,9-tetrahydro-5H-benzo[7]annulen-3-yl]-1H-pyrrolo[2,3-b]pyridin-3-yl]phenyl]pyridin-3-yl]cyclobutan-1-ol]: the IC50 in assay [1] and in assay [2] was less than 100 nM each time.
